# Like-named read-outs stand apart in the source and are kept apart here.
# Tests used:
# Assay in all cases: KiNativ, MOLM13 live cells
# Assay type in all cases: cell-based
# CDK10 = CDK10 (Homo sapiens, UniProt Q15131); conditions: MOLM-13; 100 nM, 2 hours; Lys2; read-out: Inhibition vs DMSO
# Protocol: (§1) Samples were analyzed by KiNativ in situ kinase profiling by ActivX Biosciences.
# DGKA = DGKA (Homo sapiens, UniProt P23743); conditions: MOLM-13; 100 nM, 2 hours; ATP; read-out: Inhibition vs DMSO
# Protocol: as §1
# HPK1 = HPK1 (Homo sapiens, UniProt Q92918); conditions: MOLM-13, 2 h, 100 nM
# Protocol: as §1
# IKKa = IKKa (Homo sapiens, UniProt O15111); conditions: MOLM-13; 100 nM, 2 hours; Lys2; read-out: Inhibition vs DMSO
# Protocol: as §1
# IKKb = target: T1, IKKb (Homo sapiens, UniProt O14920); conditions: MOLM-13, 2 h, 100 nM
# T1 sequence (O14920 1-756): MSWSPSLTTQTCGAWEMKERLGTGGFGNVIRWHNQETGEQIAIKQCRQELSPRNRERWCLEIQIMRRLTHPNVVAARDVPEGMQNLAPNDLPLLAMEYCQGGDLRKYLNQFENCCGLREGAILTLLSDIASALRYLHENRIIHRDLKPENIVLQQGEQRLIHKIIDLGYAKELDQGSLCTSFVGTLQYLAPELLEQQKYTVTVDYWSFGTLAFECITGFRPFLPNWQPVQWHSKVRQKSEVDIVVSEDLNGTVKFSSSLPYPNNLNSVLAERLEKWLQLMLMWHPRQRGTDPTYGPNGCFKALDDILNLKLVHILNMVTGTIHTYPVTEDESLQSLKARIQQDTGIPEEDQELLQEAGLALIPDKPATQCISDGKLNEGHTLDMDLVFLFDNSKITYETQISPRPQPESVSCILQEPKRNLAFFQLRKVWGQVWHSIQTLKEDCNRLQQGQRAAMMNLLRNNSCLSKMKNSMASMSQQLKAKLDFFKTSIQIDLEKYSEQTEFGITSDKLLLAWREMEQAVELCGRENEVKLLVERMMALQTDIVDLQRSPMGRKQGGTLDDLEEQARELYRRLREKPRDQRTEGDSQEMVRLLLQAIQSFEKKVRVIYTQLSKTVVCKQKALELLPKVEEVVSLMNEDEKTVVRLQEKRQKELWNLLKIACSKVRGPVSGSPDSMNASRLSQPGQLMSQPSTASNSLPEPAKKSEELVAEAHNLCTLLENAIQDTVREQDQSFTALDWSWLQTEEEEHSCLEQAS
# Protocol: as §1
# JAK1 domain1 = target: T2, JAK1 domain1 (Homo sapiens, UniProt P23458); conditions: 100 nM, 2 hours; Activation Loop
# T2 construct: JAK1 domain1
# Protocol: as §1
# LKB1 = LKB1 (Homo sapiens, UniProt Q15831); conditions: MOLM-13; 100 nM, 2 hours; Lys2; read-out: Inhibition vs DMSO
# Protocol: as §1
# LYN = LYN (Homo sapiens, UniProt P07948); conditions: MOLM-13; 100 nM, 2 hours; Activation Loop; read-out: Inhibition vs DMSO
# Protocol: as §1
# MAP2K4 = target: T3, MAP2K4 (Homo sapiens, UniProt P45985); conditions: MOLM-13, 2 h, 100 nM
# T3 sequence (P45985 1-399): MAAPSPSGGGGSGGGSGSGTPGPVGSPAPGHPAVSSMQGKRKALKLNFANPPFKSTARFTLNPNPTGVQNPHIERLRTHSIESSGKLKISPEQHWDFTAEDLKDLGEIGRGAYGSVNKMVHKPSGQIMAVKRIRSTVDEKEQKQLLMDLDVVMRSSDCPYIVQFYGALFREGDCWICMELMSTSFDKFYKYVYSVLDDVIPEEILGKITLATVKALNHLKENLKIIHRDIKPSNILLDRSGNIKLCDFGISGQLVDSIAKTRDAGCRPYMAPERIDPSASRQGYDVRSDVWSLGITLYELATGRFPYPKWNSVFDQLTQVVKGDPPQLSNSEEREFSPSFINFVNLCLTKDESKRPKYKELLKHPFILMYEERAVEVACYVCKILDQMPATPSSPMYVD
# Protocol: as §1
# MAST3 = MAST3 (Homo sapiens, UniProt O60307); conditions: MOLM-13; 100 nM, 2 hours; Lys2; read-out: Inhibition vs DMSO
# Protocol: as §1
# NEK1 = NEK1 (Homo sapiens, UniProt Q96PY6); conditions: MOLM-13; 100 nM, 2 hours; Lys2; read-out: Inhibition vs DMSO
# Protocol: as §1
# PFTAIRE2 = PFTAIRE2 (Homo sapiens, UniProt Q96Q40); conditions: MOLM-13; 100 nM, 2 hours; Lys2; read-out: Inhibition vs DMSO
# Protocol: as §1
# PIP4K2A = PIP4K2A (Homo sapiens, UniProt P48426); conditions: MOLM-13; 100 nM, 2 hours; ATP; read-out: Inhibition vs DMSO
# Protocol: as §1
# PYK2 = PYK2 (Homo sapiens, UniProt Q14289); conditions: MOLM-13; 100 nM, 2 hours; Activation Loop; read-out: Inhibition vs DMSO
# Protocol: as §1
# [1] = Lys1, read-out: Inhibition vs DMSO
# [2] = Lys2, read-out: Inhibition vs DMSO
# HPK1, sequence (Q92918 whole entry): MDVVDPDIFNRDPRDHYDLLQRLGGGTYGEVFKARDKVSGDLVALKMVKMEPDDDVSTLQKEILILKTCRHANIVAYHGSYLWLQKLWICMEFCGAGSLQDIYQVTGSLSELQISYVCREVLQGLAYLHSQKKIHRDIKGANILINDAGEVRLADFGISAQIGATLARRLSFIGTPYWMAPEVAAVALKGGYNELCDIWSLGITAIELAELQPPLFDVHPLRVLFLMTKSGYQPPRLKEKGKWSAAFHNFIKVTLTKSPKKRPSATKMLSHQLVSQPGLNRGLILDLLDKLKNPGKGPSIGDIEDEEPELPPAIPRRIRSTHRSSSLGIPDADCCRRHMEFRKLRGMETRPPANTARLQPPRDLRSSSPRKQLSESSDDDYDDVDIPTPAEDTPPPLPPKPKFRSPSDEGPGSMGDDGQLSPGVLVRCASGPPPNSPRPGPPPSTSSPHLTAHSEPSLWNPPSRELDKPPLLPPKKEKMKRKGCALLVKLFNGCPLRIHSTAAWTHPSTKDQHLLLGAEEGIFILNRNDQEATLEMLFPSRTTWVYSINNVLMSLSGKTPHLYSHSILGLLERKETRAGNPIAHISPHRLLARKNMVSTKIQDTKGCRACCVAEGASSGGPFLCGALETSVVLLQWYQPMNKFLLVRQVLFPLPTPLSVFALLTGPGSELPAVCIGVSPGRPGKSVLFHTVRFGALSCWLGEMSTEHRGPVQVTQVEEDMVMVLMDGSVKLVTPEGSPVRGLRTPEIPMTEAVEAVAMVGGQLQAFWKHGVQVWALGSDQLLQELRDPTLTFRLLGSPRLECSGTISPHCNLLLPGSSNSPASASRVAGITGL
# PFTAIRE2, sequence (Q96Q40 whole entry): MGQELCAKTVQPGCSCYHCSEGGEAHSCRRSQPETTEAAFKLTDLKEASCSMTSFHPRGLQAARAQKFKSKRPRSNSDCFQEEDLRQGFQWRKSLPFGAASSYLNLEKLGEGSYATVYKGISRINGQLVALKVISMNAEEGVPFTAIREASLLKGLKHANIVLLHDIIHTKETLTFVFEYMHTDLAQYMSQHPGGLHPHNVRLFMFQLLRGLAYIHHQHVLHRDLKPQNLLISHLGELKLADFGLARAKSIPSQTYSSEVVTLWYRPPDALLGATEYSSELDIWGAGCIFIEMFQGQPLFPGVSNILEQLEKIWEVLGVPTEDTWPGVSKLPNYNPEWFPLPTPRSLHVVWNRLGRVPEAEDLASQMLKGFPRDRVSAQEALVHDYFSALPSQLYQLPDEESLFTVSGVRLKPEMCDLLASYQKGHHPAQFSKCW
# T2 sequence (P23458 whole entry, the tested form may be a part): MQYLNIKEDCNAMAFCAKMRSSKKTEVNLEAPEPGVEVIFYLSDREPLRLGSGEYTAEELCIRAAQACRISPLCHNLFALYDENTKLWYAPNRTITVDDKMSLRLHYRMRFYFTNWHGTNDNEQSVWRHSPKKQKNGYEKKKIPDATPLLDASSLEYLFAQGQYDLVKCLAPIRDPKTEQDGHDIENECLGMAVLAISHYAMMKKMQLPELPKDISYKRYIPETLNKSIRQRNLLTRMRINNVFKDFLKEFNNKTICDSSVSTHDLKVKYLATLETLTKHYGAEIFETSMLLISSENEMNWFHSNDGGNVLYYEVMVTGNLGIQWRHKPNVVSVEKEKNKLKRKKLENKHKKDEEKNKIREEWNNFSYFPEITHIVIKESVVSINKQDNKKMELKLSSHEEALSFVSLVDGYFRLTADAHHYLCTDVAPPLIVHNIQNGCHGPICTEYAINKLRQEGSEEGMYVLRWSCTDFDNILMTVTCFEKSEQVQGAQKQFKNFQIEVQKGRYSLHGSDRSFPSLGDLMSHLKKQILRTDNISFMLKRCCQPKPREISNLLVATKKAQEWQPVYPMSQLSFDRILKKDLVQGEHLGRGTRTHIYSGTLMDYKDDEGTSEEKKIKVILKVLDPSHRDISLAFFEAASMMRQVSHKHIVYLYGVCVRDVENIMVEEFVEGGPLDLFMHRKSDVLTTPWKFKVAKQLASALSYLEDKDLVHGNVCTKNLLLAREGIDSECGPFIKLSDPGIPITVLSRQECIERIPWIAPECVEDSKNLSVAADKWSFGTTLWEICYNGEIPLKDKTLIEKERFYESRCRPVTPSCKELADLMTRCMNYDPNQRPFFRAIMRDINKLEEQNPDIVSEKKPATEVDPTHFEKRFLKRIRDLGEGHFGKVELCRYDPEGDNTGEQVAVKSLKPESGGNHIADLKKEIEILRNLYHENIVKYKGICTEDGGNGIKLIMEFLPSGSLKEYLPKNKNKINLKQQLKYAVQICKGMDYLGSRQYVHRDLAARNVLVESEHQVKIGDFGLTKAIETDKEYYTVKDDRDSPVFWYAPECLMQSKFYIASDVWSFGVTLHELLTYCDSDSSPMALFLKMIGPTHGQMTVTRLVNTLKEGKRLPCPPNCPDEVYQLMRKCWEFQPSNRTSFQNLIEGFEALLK
# LKB1, sequence (Q15831 1-430 limits assumed): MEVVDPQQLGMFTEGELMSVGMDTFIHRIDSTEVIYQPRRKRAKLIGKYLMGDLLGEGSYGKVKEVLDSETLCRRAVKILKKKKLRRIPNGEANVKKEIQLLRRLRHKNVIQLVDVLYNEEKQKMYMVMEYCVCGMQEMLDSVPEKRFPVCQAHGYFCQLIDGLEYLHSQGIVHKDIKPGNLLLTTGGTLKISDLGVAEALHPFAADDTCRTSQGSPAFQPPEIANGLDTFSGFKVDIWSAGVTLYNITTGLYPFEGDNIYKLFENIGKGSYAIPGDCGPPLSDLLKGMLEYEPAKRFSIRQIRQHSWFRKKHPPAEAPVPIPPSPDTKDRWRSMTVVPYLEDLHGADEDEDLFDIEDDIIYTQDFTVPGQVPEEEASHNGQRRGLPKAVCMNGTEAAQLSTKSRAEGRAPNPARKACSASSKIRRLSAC
# LKB1, sequence (Q7RTN6 whole entry partner): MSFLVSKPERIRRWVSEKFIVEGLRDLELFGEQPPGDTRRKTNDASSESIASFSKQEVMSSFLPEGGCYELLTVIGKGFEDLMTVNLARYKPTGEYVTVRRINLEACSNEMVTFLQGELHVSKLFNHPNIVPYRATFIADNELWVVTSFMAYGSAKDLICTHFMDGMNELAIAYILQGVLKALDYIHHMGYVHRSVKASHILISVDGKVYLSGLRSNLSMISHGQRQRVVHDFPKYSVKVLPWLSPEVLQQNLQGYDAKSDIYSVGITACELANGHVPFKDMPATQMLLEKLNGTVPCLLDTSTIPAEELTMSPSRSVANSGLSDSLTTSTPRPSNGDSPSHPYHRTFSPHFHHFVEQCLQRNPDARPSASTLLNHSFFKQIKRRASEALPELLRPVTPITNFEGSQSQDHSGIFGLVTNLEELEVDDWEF
# LKB1, sequence (Q9Y376 whole entry partner): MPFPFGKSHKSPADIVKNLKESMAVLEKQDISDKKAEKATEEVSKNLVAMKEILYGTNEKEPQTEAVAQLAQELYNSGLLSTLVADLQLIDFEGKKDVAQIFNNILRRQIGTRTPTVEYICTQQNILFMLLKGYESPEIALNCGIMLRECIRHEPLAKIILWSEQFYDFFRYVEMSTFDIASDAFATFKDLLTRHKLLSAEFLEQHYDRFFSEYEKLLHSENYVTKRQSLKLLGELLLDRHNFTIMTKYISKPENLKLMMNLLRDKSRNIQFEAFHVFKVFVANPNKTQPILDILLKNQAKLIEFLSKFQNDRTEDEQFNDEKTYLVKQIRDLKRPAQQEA
# LYN, sequence (P07948 whole entry): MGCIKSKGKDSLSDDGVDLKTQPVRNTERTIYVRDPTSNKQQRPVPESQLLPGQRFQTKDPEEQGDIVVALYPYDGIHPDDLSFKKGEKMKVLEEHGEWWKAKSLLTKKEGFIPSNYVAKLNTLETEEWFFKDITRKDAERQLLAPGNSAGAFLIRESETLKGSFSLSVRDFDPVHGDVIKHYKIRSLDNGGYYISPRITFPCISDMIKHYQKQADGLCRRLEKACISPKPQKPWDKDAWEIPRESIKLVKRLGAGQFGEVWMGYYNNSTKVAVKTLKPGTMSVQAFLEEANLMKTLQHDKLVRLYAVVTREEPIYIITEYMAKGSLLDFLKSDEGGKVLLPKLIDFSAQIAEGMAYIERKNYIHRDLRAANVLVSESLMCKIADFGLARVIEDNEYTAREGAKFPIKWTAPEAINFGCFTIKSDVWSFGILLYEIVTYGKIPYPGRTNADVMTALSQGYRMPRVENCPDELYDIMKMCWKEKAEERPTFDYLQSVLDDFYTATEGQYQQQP
# PIP4K2A, sequence (P48426 whole entry): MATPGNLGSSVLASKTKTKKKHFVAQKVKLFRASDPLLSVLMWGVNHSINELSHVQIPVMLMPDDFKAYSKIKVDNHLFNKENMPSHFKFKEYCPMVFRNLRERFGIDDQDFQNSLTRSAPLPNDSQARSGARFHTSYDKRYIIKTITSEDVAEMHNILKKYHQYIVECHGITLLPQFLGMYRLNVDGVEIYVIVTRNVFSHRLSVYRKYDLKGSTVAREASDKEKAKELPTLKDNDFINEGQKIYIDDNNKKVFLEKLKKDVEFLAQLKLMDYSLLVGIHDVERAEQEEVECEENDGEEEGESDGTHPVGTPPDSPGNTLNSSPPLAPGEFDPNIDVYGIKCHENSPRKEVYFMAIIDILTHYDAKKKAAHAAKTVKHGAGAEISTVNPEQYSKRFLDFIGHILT
# CDK10, sequence (Q15131 whole entry): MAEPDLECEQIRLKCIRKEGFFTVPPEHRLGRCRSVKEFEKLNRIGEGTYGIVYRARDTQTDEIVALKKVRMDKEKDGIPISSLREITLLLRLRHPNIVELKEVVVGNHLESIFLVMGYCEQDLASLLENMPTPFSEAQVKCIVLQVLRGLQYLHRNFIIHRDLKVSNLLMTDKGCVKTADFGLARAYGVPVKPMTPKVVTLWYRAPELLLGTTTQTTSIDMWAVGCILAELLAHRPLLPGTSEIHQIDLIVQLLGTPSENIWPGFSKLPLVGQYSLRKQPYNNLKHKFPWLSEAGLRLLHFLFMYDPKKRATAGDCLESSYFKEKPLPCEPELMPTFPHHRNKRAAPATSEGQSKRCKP
smiles,measurement,setting,value
CN1CCN(Cc2ccc(Nc3ncc(Cl)c(Nc4ccccc4S(=O)(=O)N(C)C)n3)cc2)CC1 [TP-0903],inhibition at 0.1 µM,CDK10,33.7%
same,inhibition at 0.1 µM,DGKA,-9.4%
same,inhibition at 0.1 µM,HPK1; [1],58.7%
same,inhibition at 0.1 µM,HPK1; [2],55.7%
same,inhibition at 0.1 µM,IKKa,2.9%
same,inhibition at 0.1 µM,IKKb; [1],-4.8%
same,inhibition at 0.1 µM,IKKb; [2],-10.5%
same,Inhibition vs DMSO,JAK1 domain1,82.7%
same,inhibition at 0.1 µM,LKB1,18.2%
same,inhibition at 0.1 µM,LYN,58.8%
same,inhibition at 0.1 µM,"MAP2K4; Activation Loop, read-out: Inhibition vs DMSO",4.3%
same,inhibition at 0.1 µM,MAP2K4; [1],-38.6%
same,inhibition at 0.1 µM,MAP2K4; [2],4.1%
same,inhibition at 0.1 µM,MAST3,-22.3%
same,inhibition at 0.1 µM,NEK1,-21.7%
same,inhibition at 0.1 µM,PFTAIRE2,16.4%
same,inhibition at 0.1 µM,PIP4K2A,-28.1%
same,inhibition at 0.1 µM,PYK2,21.6%

# Reference: publication PMC7714403 (JCI Insight, 2020)
